Data as given in patent publication US20250333406A1, “SULFONYL CYCLIC DERIVATIVES, AND COMPOSITIONS AND METHODS THEREOF” (Lysoway Therapeutics, Inc., priority 2023, published 2025).

Test system: TFEB
Assay: TFEB Nuclear Translocation Assay
Format: cell-based
Details: read-out: EC50 of TFEB activation

| SMILES | EC50 [nM] |
| --- | --- |
| CC(C)S(=O)(=O)n1ccc(S(=O)(=O)n2nc(N3CCN(c4ncc(Cl)cc4F)CC34CC4)c3c(Cl)ccnc32)c1 [Compound 152, 4-chloro-3-[7-(5-chloro-3-fluoro-2-pyridyl)-4,7-diazaspiro [2.5]octan-4-yl]-1-(1-isopropylsulfonylpyrrol-3-yl) sulfonyl-pyrazolo [3,4-b]pyridine] | ≤ 1000 |
| CC(C)S(=O)(=O)n1ccc(S(=O)(=O)n2nc(N3CCN(c4ncc(Cl)cc4F)CC34CC4)c3c(Cl)nccc32)c1 [Compound 153, 4-chloro-3-(7-(5-chloro-3-fluoropyridin-2-yl)-4,7-diazaspiro[2.5]octan-4-yl)-1-((1-(isopropylsulfonyl)-1H-pyrrol-3-yl)sulfonyl)-1H-pyrazolo[4,3-c]pyridine] | ≤ 1000 |
| CC(C)S(=O)(=O)n1ccc(S(=O)(=O)n2nc(N3CCN(c4ncc(Cl)cn4)CC34CC4)c3c(Cl)cc(F)cc32)c1 [Compound 154, 4-chloro-3-(7-(5-chloropyrimidin-2-yl)-4,7-diazaspiro [2.5]octan-4-yl)-6-fluoro-1-((1-(isopropylsulfonyl)-1H-pyrrol-3-yl)sulfonyl)-1H-indazole] | ≤ 1000 |
| CC(C)S(=O)(=O)n1ccc(S(=O)(=O)n2nc(N3CCN(c4ncc(F)cn4)CC34CC4)c3c(Cl)cc(F)cc32)c1 [Compound 155, 4-chloro-6-fluoro-3-(7-(5-fluoropyrimidin-2-yl)-4,7-diazaspiro [2.5]octan-4-yl)-1-((1-(isopropylsulfonyl)-1H-pyrrol-3-yl)sulfonyl)-1H-indazole] | ≤ 1000 |
| CC(C)S(=O)(=O)n1ccc(S(=O)(=O)n2nc(N3CCN(c4nc(Cl)ns4)CC34CC4)c3c(Cl)cc(F)cc32)c1 [Compound 156, 3-chloro-5-[4-[4-chloro-6-fluoro-1-(1-isopropylsulfonylpyrrol-3-yl)sulfonyl-indazol-3-yl]-4,7-diazaspiro [2.5]octan-7-yl]-1,2,4-thiadiazole] | ≤ 1000 |
| CC(C)S(=O)(=O)n1ccc(S(=O)(=O)n2nc(N3CCN(c4ncc(Cl)s4)CC34CC4)c3c(Cl)cc(F)cc32)c1 [Compound 157, 5-chloro-2-(4-(4-chloro-6-fluoro-1-((1-(isopropylsulfonyl)-1H-pyrrol-3-yl)sulfonyl)-1H-indazol-3-yl)-4,7-diazaspiro [2.5]octan-7-yl) thiazole] | ≤ 1000 |
| CC(C)S(=O)(=O)n1ccc(S(=O)(=O)n2nc(N3CCN(c4ncc(F)cc4F)CC34CC4)c3c(Cl)cc(F)cc32)c1 [Compound 158, 4-chloro-3-[7-(3,5-difluoro-2-pyridyl)-4,7-diazaspiro [2.5]octan-4-yl]-6-fluoro-1-(1-isopropylsulfonylpyrrol-3-yl) sulfonyl-indazole] | ≤ 1000 |
| CC(C)S(=O)(=O)n1ccc(S(=O)(=O)n2nc(N3CCN(c4ncc(F)cc4F)CC34CC4)c3c(F)cc(F)cc32)c1 [Compound 159, 3-(7-(3,5-difluoropyridin-2-yl)-4,7-diazaspiro [2.5]octan-4-yl)-4,6-difluoro-1-((1-(isopropylsulfonyl)-1H-pyrrol-3-yl)sulfonyl)-1H-indazole] | ≤ 1000 |
| Cc1cc(S(=O)(=O)n2nc(N3CCN(c4ncc(F)cc4F)CC34CC4)c3c(Cl)cc(F)cc32)c(C)n1S(=O)(=O)C(C)C [Compound 160, 4-chloro-3-[7-(3,5-difluoro-2-pyridyl)-4,7-diazaspiro [2.5]octan-4-yl]-6-fluoro-1-(1-isopropylsulfonyl-2,5-dimethyl-pyrrol-3-yl) sulfonyl-indazole] | ≤ 1000 |
| CC(C)S(=O)(=O)n1ccc(S(=O)(=O)n2nc(N3CCN(c4ccc(F)cn4)CC34CC4)c3c(Cl)cc(F)cc32)c1 [Compound 161, 4-chloro-6-fluoro-3-[7-(5-fluoro-2-pyridyl)-4,7-diazaspiro [2.5]octan-4-yl]-1-(1-isopropylsulfonylpyrrol-3-yl) sulfonyl-indazole] | ≤ 1000 |
| CC(C)S(=O)(=O)n1ccc(S(=O)(=O)n2nc(N3CCN(c4ncccc4F)CC34CC4)c3c(Cl)cc(F)cc32)c1 [Compound 162, 4-chloro-6-fluoro-3-[7-(3-fluoro-2-pyridyl)-4,7-diazaspiro [2.5]octan-4-yl]-1-(1-isopropylsulfonylpyrrol-3-yl) sulfonyl-indazole] | ≤ 1000 |
| CC(C)S(=O)(=O)n1ccc(S(=O)(=O)n2nc(N3CCN(c4ccccn4)CC34CC4)c3c(Cl)cc(F)cc32)c1 [Compound 163, 4-chloro-6-fluoro-1-(1-isopropylsulfonylpyrrol-3-yl)sulfonyl-3-[7-(2-pyridyl)-4,7-diazaspiro[2.5]octan-4-yl]indazole] | ≤ 1000 |
| CC(C)S(=O)(=O)n1ccc(S(=O)(=O)n2nc(N3CCN(c4ncccn4)CC34CC4)c3c(Cl)cc(F)cc32)c1 [Compound 164, 4-chloro-6-fluoro-1-(1-isopropylsulfonylpyrrol-3-yl)sulfonyl-3-(7-pyrimidin-2-yl-4,7-diazaspiro[2.5]octan-4-yl) indazole] | ≤ 1000 |

Further lines, results first:

| EC50 [nM] | SMILES |
| --- | --- |
| ≤ 1000 | CC(C)S(=O)(=O)n1ccc(S(=O)(=O)n2nc(N3CCN(c4ccc(F)cn4)CC34CC4)c3c(F)cc(F)cc32)c1 [Compound 165, 4,6-difluoro-3-(7-(5-fluoropyridin-2-yl)-4,7-diazaspiro [2.5]octan-4-yl)-1-((1-(isopropylsulfonyl)-1H-pyrrol-3-yl)sulfonyl)-1H-indazole] |
| ≤ 1000 | CC(C)S(=O)(=O)n1ccc(S(=O)(=O)n2nc(N3CCN(c4ncc(F)cn4)CC34CC4)c3c(F)cc(F)cc32)c1 [Compound 166, 4,6-difluoro-3-(7-(5-fluoropyrimidin-2-yl)-4,7-diazaspiro [2.5]octan-4-yl)-1-((1-(isopropylsulfonyl)-1H-pyrrol-3-yl)sulfonyl)-1H-indazole] |
| ≤ 1000 | CC(C)S(=O)(=O)n1ccc(S(=O)(=O)n2nc(N3CCN(c4ncc(F)cn4)CC34CC4)c3c(F)cc(Cl)cc32)c1 [Compound 167, 6-chloro-4-fluoro-3-(7-(5-fluoropyrimidin-2-yl)-4,7-diazaspiro [2.5]octan-4-yl)-1-((1-(isopropylsulfonyl)-1H-pyrrol-3-yl)sulfonyl)-1H-indazole] |
| ≤ 1000 | CC(C)S(=O)(=O)n1ccc(S(=O)(=O)n2nc(N3CCN(c4ncc(F)cc4F)CC34CC4)c3c(F)cc(Cl)cc32)c1 [Compound 168, 6-chloro-3-[7-(3,5-difluoro-2-pyridyl)-4,7-diazaspiro [2.5]octan-4-yl]-4-fluoro-1-(1-isopropylsulfonylpyrrol-3-yl) sulfonyl-indazole] |
| ≤ 1000 | CN(C)S(=O)(=O)n1ccc(S(=O)(=O)n2nc(N3CCN(c4ncc(F)cn4)CC34CC4)c3c(F)cc(F)cc32)c1 [Compound 169, 3-[4,6-difluoro-3-[7-(5-fluoropyrimidin-2-yl)-4,7-diazaspiro [2.5]octan-4-yl]indazol-1-yl]sulfonyl-N, N-dimethyl-pyrrole-1-sulfonamide] |
| ≤ 1000 | CN(C)S(=O)(=O)n1ccc(S(=O)(=O)n2nc(N3CCN(c4ncc(F)cn4)CC34CC4)c3c(Cl)cc(F)cc32)c1 [Compound 170, 3-[4-chloro-6-fluoro-3-[7-(5-fluoropyrimidin-2-yl)-4,7-diazaspiro [2.5]octan-4-yl]indazol-1-yl]sulfonyl-N, N-dimethyl-pyrrole-1-sulfonamide] |
| ≤ 1000 | CC(C)(C)S(=O)(=O)n1ccc(S(=O)(=O)n2nc(N3CCN(c4ncc(F)cn4)CC34CC4)c3c(Cl)cc(F)cc32)c1 [Compound 171, 1-((1-(tert-butylsulfonyl)-1H-pyrrol-3-yl)sulfonyl)-4-chloro-6-fluoro-3-(7-(5-fluoropyrimidin-2-yl)-4,7-diazaspiro [2.5]octan-4-yl)-1H-indazole] |
| ≤ 1000 | CC(C)(C)S(=O)(=O)n1ccc(S(=O)(=O)n2nc(N3CCN(c4ncc(F)cn4)CC34CC4)c3c(F)cc(F)cc32)c1 [Compound 172, 1-((1-(tert-butylsulfonyl)-1H-pyrrol-3-yl)sulfonyl)-4,6-difluoro-3-(7-(5-fluoropyrimidin-2-yl)-4,7-diazaspiro [2.5]octan-4-yl)-1H-indazole] |
| ≤ 1000 | O=S(=O)(c1ccn(S(=O)(=O)C2CC2)c1)n1nc(N2CCN(c3ncc(F)cn3)CC23CC3)c2c(Cl)cc(F)cc21 [Compound 173, 4-chloro-1-((1-(cyclopropylsulfonyl)-1H-pyrrol-3-yl)sulfonyl)-6-fluoro-3-(7-(5-fluoropyrimidin-2-yl)-4,7-diazaspiro [2.5]octan-4-yl)-1H-indazole] |
| ≤ 1000 | O=S(=O)(c1ccn(S(=O)(=O)C2CC2)c1)n1nc(N2CCN(c3ncc(F)cn3)CC23CC3)c2c(F)cc(F)cc21 [Compound 174, 1-((1-(cyclopropylsulfonyl)-1H-pyrrol-3-yl)sulfonyl)-4,6-difluoro-3-(7-(5-fluoropyrimidin-2-yl)-4,7-diazaspiro [2.5]octan-4-yl)-1H-indazole] |
| ≤ 1000 | CC(C)S(=O)(=O)n1ccc(S(=O)(=O)n2nc(N3CCN(c4ccc(F)cc4)CC34CC4)c3c(Cl)cc(F)cc32)c1 [Compound 175, 4-chloro-6-fluoro-3-(7-(4-fluorophenyl)-4,7-diazaspiro [2.5]octan-4-yl)-1-((1-(isopropylsulfonyl)-1H-pyrrol-3-yl)sulfonyl)-1H-indazole] |
| ≥ 10000 | CC(C)S(=O)(=O)n1ccc(S(=O)(=O)n2nc(N3CCN(c4ccncc4)CC34CC4)c3c(Cl)cc(F)cc32)c1 [Compound 176, 4-chloro-6-fluoro-1-(1-isopropylsulfonylpyrrol-3-yl) sulfonyl-3-[7-(4-pyridyl)-4,7-diazaspiro [2.5]octan-4-yl]indazole] |
| ≤ 1000 | CC(C)S(=O)(=O)n1ccc(S(=O)(=O)n2nc(N3CCN(c4ncc(F)cn4)C[C@@H]3C)c3c(Cl)cc(F)cc32)c1 [Compound 177, 4-chloro-6-fluoro-3-[(2S)-4-(5-fluoropyrimidin-2-yl)-2-methyl-piperazin-1-yl]-1-(1-isopropylsulfonylpyrrol-3-yl) sulfonyl-indazole] |
| ≤ 1000 | CC(C)S(=O)(=O)n1ccc(S(=O)(=O)n2nc(N3CCN(c4ncc(F)cn4)C[C@H]3C)c3c(Cl)cc(F)cc32)c1 [Compound 178, 4-chloro-6-fluoro-3-[(2R)-4-(5-fluoropyrimidin-2-yl)-2-methyl-piperazin-1-yl]-1-(1-isopropylsulfonylpyrrol-3-yl) sulfonyl-indazole] |
